# Assay results taken from patent US20100222421A1, “Usage of Baicalein in the Preparation of a Pharmaceutical Composition for the Treatment of Traumatic Brain Injury” (National Defense Medical Center, priority 2009, published 2010).
# System: IL-6-positive cells
# Test: Immunohistochemistry, IL-6-positive cells after CCI injury
# Assay type: in vivo, rat
# Conditions: single-dose 30 mg kg^-1 i.p.; cortical tissue adjacent to contusion core, 1 day post-injury
# Procedure: A previously described CCI injury procedure was utilized (Chen et al., 2003). Male Sprague-Dawley rats, which have body weight of 250-300 g, were anaesthetized with sodium pentobarbital (i.p.; 50 mgkg^−1; Rhone Merieux, Harlow, UK) and placed in a stereotaxic frame. A 5-mm craniotomy was performed over the left parietal cortex, centered on the coronal suture and 3 mm lateral to the sagittal suture. Considerable care was taken to avoid injury to the underlying dura. Injury was made using a pneumatic piston with a rounded metal tip (2.5 mm diameter) that was angled 22.5° C. to the vertical so that the tip was perpendicular with the brain surface at the centre of the craniotomy. A velocity of 4 ms^−1 and a deformation depth 2 mm below the dura were used. The bone flap was immediately replaced and sealed, and the scalp was closed with sutures. Body temperature was monitored throughout the surgery by a rectal probe; temperature was maintained at 37.0±0.5° C. using a heated pad. […] Testing after injury was as follows: (1) real-time quantitative RT-PCR analysis for TNF-α, IL-1β and IL-6 mRNA expression at 6 h post-injury (n=7 for each group); (2) FluoroJade B (FJB) staining, TNF-α, IL-1β and IL-6 immunohistochemistry, as well as ELISA at 24 h post-injury to assess degenerative neurons and to determine cytokine expression (n=7 for each group). […]
smiles,measurement,value
O=c1cc(-c2ccccc2)oc2cc(O)c(O)c(O)c12 [baicalein],reduction in IL-6-positive cells relative to vehicle,33%
